{
  "source": "patent US20200147085A1",
  "about": "“COMPOSITIONS AND METHODS FOR TREATMENT OF PSYCHIATRIC DISORDERS” (priority 2007, published 2020)",
  "origin": "cited, not measured here",
  "key": {"[1]": {"details": "healthy controls, single oral dose of 400 mg of SAM"}, "[2]": {"details": "parenterally administered SAM"}, "[3]": {"system": "healthy volunteers", "details": "daily iv infusion for 7 days; not supine"}, "[4]": {"system": "chronic renal failure patients", "details": "4 grams daily, with 5 mg folate and 50 mg pyridoxine daily; not fasting levels"}, "[5]": {"details": "rats, intraperitoneal"}, "[6]": {"system": "schizophrenic patients", "details": "10-20 grams/day"}},
  "data": [
    {"smiles": "C[S+](CC[C@H](N)C(=O)O)C[C@H]1O[C@@H](n2cnc3c(N)ncnc32)[C@H](O)[C@@H]1O", "note": "(stereo partly drawn) [SAM, S-adenosylmethionine]", "values": [
      {"measurement": "half-life of SAM", "setting": "[1]", "result": "1.7 ± 0.3", "unit": "h"},
      {"measurement": "SAM levels in cerebral spinal fluid", "setting": "[2]", "result": "about 130 % of controls"},
      {"measurement": "decrease in standing heart rate", "setting": "[3]", "result": 6, "unit": "beats/minute"}
    ]},
    {"smiles": "C[N+](C)(C)CC(=O)[O-]", "note": "[betaine, trimethylglycine]", "values": [
      {"measurement": "decrease of post-methionine loading homocysteine levels", "setting": "[4]", "result": 18, "unit": "%"}
    ]},
    {"smiles": "CSCC[C@H](N)C(=O)O", "note": "[methionine, L-methionine]", "values": [
      {"measurement": "SAM in brain", "setting": "[5]", "result": "about 130 % of controls"},
      {"measurement": "schizophrenic patients with worsened psychosis", "setting": "[6]", "result": "about 40%"}
    ]}
  ]
}
